Converted amounts (≈) assume the structure as drawn.
How the values were obtained:
[1] = Hemolytic activity against New Zealand white rabbit RBC assessed as hemoglobin release measured after 1 hr; assay type: ADME, cell-based, Oryctolagus cuniculus, Erythrocyte; settings: red blood cells
[2] = system: Mycolicibacterium smegmatis; test: Antimycobacterial activity against Mycobacterium smegmatis MC2 155 after 24 hrs by broth dilution assay; assay type: functional; settings: str. MC2 155, 24 h
[3] = Cytotoxicity against human corneal fibroblasts assessed as reduction in ATP level measured after 4 hrs by Celltiter-Glo luminescent assay; assay type: toxicity, Corneal fibroblast
[4] = Cytotoxicity against human corneal fibroblasts assessed as increase in LDH level measured after 4 hrs by Cytotox-one […] assay; assay type: toxicity, Corneal fibroblast
[5] = Drug metabolism in rat liver microsomes at 1 uM preincubated for 5 mins followed by NADPH addition measured up to 30 mins by LC-MS/MS method; assay type: ADME; settings: read-out: Drug metabolism
[6] = Half life in rat liver microsomes at 1 uM preincubated for 5 mins followed by NADPH addition measured by LC-MS/MS method; assay type: ADME
CYP3A4 = CYP3A4 (Homo sapiens, UniProt P08684); test: Inhibition of CYP3A4 in human liver microsomes at 10 uM using midazolam as substrate preincubated for 5 min followed by NADPH addition measured after 10 mins by LC-MS/MS method relative to control; assay type: ADME; settings: probe midazolam
CYP2D6 = CYP2D6 (Homo sapiens, UniProt P10635); test: Inhibition of CYP2D6 in human liver microsomes at 10 uM using bufuralol as substrate preincubated for 5 min followed by NADPH addition measured after 10 mins by LC-MS/MS method relative to control; assay type: ADME; settings: probe bufuralol
CYP2C19 = CYP2C19 (Homo sapiens, UniProt P33261); test: Inhibition of CYP2C19 in human liver microsomes at 10 uM using omeprazole as substrate preincubated for 5 min followed by NADPH addition measured after 10 mins by LC-MS/MS method relative to control; assay type: ADME; settings: probe omeprazole
Staphylococcus aureus [7] = test: Antibacterial activity against methicillin-resistant Staphylococcus aureus isolate DM21455; assay type: functional
Staphylococcus aureus [8] = test: Antibacterial activity against Staphylococcus aureus isolate DM4001; assay type: functional
[9] = system: Mycolicibacterium smegmatis; test: Antimycobacterial activity against Mycobacterium smegmatis MC2 155 assessed as inhibition of respiratory ATP synthesis by measuring ATP level at 4 times MIC measured after 1 hr by luciferase reporter gene assay (reference value: 90.6%); assay type: functional, str. MC2 155; parameters: scale not given: the % may be the effect or the level left
[10] = system: Mycolicibacterium smegmatis; test: Antimycobacterial activity against Mycobacterium smegmatis MC2 155 assessed as inhibition of respiratory ATP synthesis by measuring ATP level at 2 times MIC measured after 3 hrs by luciferase reporter gene assay (reference value: 158.3%); assay type: functional, str. MC2 155; parameters: scale not given: the % may be the effect or the level left
[11] = system: Mycolicibacterium smegmatis; test: Antimycobacterial activity against Mycobacterium smegmatis MC2 155 assessed as inhibition of respiratory ATP synthesis by measuring ATP level at 4 times MIC measured after 6 hrs by luciferase reporter gene assay (reference value: 152%); assay type: functional, str. MC2 155; parameters: scale not given: the % may be the effect or the level left
[12] = Selectivity index, ratio of CC50 for human corneal fibroblasts assessed as reduction in ATP level to MIC90 for Mycobacterium smegmatis MC2 155
[13] = Selectivity index, ratio of CC50 for human corneal fibroblasts assessed as reduction in ATP level to MIC90 for Mycobacterium bovis BCG ATCC 35734
Mycobacteroides chelonae = test: Antimycobacterial activity against Mycobacterium chelonae by CLSI method; assay type: functional
[14] = system: Mycolicibacterium smegmatis; test: Antimycobacterial activity against Mycobacterium smegmatis by CLSI method; assay type: functional
[15] = system: Mycobacterium tuberculosis; test: Antimycobacterial activity against Mycobacterium tuberculosis H37Ra measured after 7 days by alamar blue assay; assay type: functional; settings: 168 h
Mycobacterium xenopi = test: Antimycobacterial activity against Mycobacterium xenopi by CLSI method; assay type: functional
[16] = system: Mycobacterium intracellulare; test: Antimycobacterial activity against Mycobacterium intracellulare by CLSI method; assay type: functional
[17] = Cytotoxicity against human MRC5 SV2 cells measured after 72 hrs by resazurin based fluorescence assay; assay type: toxicity, cell-based
[18] = system: Mycolicibacterium smegmatis; test: Antimycobacterial activity against Mycobacterium smegmatis MC2 155 assessed as inhibition of respiratory ATP synthesis by measuring ATP level at 4 times MIC measured after 6 hrs by luciferase reporter gene assay (reference value: 212.7%); assay type: functional, str. MC2 155; parameters: scale not given: the % may be the effect or the level left
[19] = system: Mycolicibacterium smegmatis; test: Antimycobacterial activity against Mycobacterium smegmatis MC2 155 assessed as inhibition of respiratory ATP synthesis by measuring ATP level at 800 ug/ml measured after 1 hr by luciferase reporter gene assay (reference value: 90.6%); assay type: functional, str. MC2 155; parameters: scale not given: the % may be the effect or the level left
[20] = system: Mycolicibacterium smegmatis; test: Antimycobacterial activity against Mycobacterium smegmatis MC2 155 assessed as inhibition of respiratory ATP synthesis by measuring ATP level at 800 ug/ml measured after 3 hrs by luciferase reporter gene assay (reference value: 158.3%); assay type: functional, str. MC2 155; parameters: scale not given: the % may be the effect or the level left
[21] = system: Mycolicibacterium smegmatis; test: Antimycobacterial activity against Mycobacterium smegmatis MC2 155 assessed as inhibition of respiratory ATP synthesis by measuring ATP level at 800 ug/ml measured after 6 hrs by luciferase reporter gene assay (reference value: 152%); assay type: functional, str. MC2 155; parameters: scale not given: the % may be the effect or the level left
[22] = system: Mycolicibacterium smegmatis; test: Antimycobacterial activity against Mycobacterium smegmatis MC2 155 assessed as inhibition of respiratory ATP synthesis by measuring ATP level at 800 ug/ml measured after 9 hrs by luciferase […] assay (reference value: 212.7%); assay type: functional, str. MC2 155; parameters: scale not given: the % may be the effect or the level left

CYP2C19, sequence (P33261 whole entry): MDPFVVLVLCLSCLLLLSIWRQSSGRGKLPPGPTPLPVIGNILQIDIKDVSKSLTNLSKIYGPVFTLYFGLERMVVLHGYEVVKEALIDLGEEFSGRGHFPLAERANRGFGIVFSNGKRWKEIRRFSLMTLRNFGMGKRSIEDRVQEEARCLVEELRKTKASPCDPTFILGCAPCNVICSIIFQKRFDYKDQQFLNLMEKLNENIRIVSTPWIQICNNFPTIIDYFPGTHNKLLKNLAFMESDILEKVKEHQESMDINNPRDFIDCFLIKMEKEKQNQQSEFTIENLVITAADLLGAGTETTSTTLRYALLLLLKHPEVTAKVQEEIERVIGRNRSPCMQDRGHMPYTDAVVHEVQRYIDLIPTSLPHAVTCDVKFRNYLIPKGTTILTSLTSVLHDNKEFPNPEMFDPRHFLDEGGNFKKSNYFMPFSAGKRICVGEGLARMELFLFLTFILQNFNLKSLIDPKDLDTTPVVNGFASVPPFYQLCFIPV
CYP2D6, sequence (P10635 whole entry): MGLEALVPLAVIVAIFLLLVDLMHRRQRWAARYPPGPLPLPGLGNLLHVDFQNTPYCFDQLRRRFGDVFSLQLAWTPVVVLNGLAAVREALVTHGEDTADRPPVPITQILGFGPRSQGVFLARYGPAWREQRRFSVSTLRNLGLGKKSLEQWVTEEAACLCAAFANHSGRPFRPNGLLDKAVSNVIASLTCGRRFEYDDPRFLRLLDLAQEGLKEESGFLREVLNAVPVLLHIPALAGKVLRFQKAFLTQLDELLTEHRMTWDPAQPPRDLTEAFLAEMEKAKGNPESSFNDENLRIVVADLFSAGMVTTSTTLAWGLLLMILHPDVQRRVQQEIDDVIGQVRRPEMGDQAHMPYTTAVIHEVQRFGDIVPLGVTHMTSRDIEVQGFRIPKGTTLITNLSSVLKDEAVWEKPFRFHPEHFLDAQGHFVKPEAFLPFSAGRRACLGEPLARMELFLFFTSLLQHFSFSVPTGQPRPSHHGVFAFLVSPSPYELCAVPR
CYP3A4, sequence (P08684 whole entry): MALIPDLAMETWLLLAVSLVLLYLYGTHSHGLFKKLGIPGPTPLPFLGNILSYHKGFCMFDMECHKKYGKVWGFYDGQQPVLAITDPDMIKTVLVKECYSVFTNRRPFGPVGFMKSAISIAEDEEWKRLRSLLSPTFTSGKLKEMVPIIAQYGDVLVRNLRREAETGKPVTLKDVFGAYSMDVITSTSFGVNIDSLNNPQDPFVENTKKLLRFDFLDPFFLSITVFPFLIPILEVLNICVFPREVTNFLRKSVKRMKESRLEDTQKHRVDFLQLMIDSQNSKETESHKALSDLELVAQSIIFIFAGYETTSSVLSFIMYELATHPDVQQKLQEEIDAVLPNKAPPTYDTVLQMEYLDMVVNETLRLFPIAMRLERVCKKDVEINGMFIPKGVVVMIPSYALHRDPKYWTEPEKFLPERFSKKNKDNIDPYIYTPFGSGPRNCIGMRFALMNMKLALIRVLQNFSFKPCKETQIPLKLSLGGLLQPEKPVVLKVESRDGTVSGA

Compound: COc1c(OCC(=O)NC(CCCNC(=N)N)C(N)=O)cc2oc3cc(OCC(=O)NC(CCCNC(=N)N)C(N)=O)c(CC=C(C)C)c(O)c3c(=O)c2c1CC=C(C)C (centres undefined)
- HC50 at 1 h [1]: 183 µM
- MIC90 [2]: > 30 µM
- CC50 at 4 h [3]: 60.1 µM
- CC50 at 4 h [4]: 119 µM
- metabolised at 0.5 h, 1 µM [5]: 14.4%
- half-life at 1 µM [6]: > 30 min
- inhibition at 10 min, 10 µM (CYP3A4): 42%
- inhibition at 10 min, 10 µM (CYP2D6): 2%
- inhibition at 10 min, 10 µM (CYP2C19): 3%

Compound: COc1c(OCCCCN2CCSCC2)cc2oc3cc(OCCCCN4CCSCC4)c(CC=C(C)C)c(O)c3c(=O)c2c1CC=C(C)C
- HC50 at 1 h [1]: > 276 µM
- MIC90 [2]: > 30 µM

Compound: COc1c(OCC(O)CNCCNCCNCCN)cc2oc3cc(OCC(O)CNCCNCCNCCN)c(CC=C(C)C)c(O)c3c(=O)c2c1CC=C(C)C (centres undefined)
- HC50 at 1 h [1]: 155 µM
- MIC90 [2]: > 30 µM
- MIC (Staphylococcus aureus [7]): 15 µM (≈ 12.2 µg/mL)
- MIC (Staphylococcus aureus [8]): 15 µM (≈ 12.2 µg/mL)

Compound: CO[C@H]1/C=C/O[C@@]2(C)Oc3c(C)c(O)c4c(O)c(c(/C=N/N5CCN(C)CC5)c(O)c4c3C2=O)NC(=O)/C(C)=C\C=C\[C@H](C)[C@H](O)[C@@H](C)[C@@H](O)[C@@H](C)[C@H](OC(C)=O)[C@@H]1C [RIFAMPIN]
- MIC90 [2]: 2.5 µM (≈ 2.06 µg/mL)
- Activity [9]: 123.4%
- Activity [10]: 95.6%
- Activity [11]: 66.5%

Compound: COc1c(OCCCCN(C)C)cc2oc3cc(OCCCCN(C)C)c(CCC(C)C)c(O)c3c(=O)c2c1CCC(C)C
- MIC90 [2]: 6.4 µM (≈ 3.92 µg/mL)

Compound: CCN(CC)CCCCCCCOc1cc2oc3cc(OCCCCCCCN(CC)CC)c(OC)c(CC=C(C)C)c3c(=O)c2c(O)c1CC=C(C)C
- HC50 at 1 h [1]: 86 µM
- MIC90 [2]: 6.4 µM (≈ 4.79 µg/mL)
- CC50 at 4 h [3]: 95.1 µM
- CC50 at 4 h [4]: > 150 µM
- metabolised at 0.5 h, 1 µM [5]: 13.9%
- half-life at 1 µM [6]: > 30 min
- inhibition at 10 min, 10 µM (CYP3A4): 3%
- inhibition at 10 min, 10 µM (CYP2D6): 6%
- inhibition at 10 min, 10 µM (CYP2C19): 16%
- Selectivity Index [12]: 15 - 40
- Selectivity Index [13]: 15 - 40

Compound: COc1c(O)cc2oc3cc(O)c(CC=C(C)C)c(O)c3c(=O)c2c1CC=C(C)C [MANGOSTIN]
- MIC (Mycobacteroides chelonae): 3.7 µM (≈ 1.52 µg/mL)
- MIC [14]: 3.7 µM (≈ 1.52 µg/mL)
- MIC [15]: 6.25 µg/mL (≈ 15.2 µM)
- MIC (Mycobacterium xenopi): 3.7 µM (≈ 1.52 µg/mL)
- MIC [16]: 3.7 µM (≈ 1.52 µg/mL)
- CC50 at 72 h [17]: 7.5 µM

Compound: COc1c(OCC(O)CNCCNC(=N)N)cc2oc3cc(OCC(O)CNCCNC(=N)N)c(CC=C(C)C)c(O)c3c(=O)c2c1CC=C(C)C (centres undefined)
- HC50 at 1 h [1]: 141 µM
- MIC90 [2]: > 30 µM
- MIC (Staphylococcus aureus [7]): 5 µM (≈ 3.63 µg/mL)
- MIC (Staphylococcus aureus [8]): 5 µM (≈ 3.63 µg/mL)

Compound: CN[C@@H]1[C@H](O[C@H]2[C@H](O[C@H]3[C@H](O)[C@@H](O)[C@H](N=C(N)N)[C@@H](O)[C@@H]3N=C(N)N)O[C@@H](C)[C@]2(O)C=O)O[C@@H](CO)[C@H](O)[C@H]1O [STREPTOMYCIN]
- MIC90 [2]: 0.625 µM (≈ 0.363 µg/mL)
- Activity [9]: 114.4%
- Activity [10]: 75.7%
- Activity [11]: 59.9%
- Activity [18]: 75.7%

Compound: CCN(CC)CCCOc1cc2oc3cc(OCCCN(CC)CC)c(OC)c(CC=C(C)C)c3c(=O)c2c(O)c1CC=C(C)C
- MIC90 [2]: 3.2 µM (≈ 2.04 µg/mL)

Compound: COc1c(OCCCCN2CCOCC2)cc2oc3cc(OCCCCN4CCOCC4)c(CC=C(C)C)c(OCCCCN4CCOCC4)c3c(=O)c2c1CC=C(C)C
- HC50 at 1 h [1]: > 240 µM
- MIC90 [2]: > 30 µM

Compound: CCCN(CCC)CC(O)COc1cc2oc3cc(OCC(O)CN(CCC)CCC)c(OC)c(CC=C(C)C)c3c(=O)c2c(O)c1CC=C(C)C (centres undefined)
- HC50 at 1 h [1]: > 276 µM
- MIC90 [2]: > 30 µM

Compound: O=C(CC(=O)C(F)(F)F)c1cccs1
- Activity [19]: 36.8%
- Activity [20]: 25.8%
- Activity [21]: 17.4%
- Activity [22]: 26.3%

Compound: C(=NC1CCCCC1)=NC1CCCCC1 [DICYCLOHEXYLCARBODIIMIDE]
- Activity [19]: 7%
- Activity [20]: 6.7%
- Activity [21]: 11.1%
- Activity [22]: 13.3%
